Data set [1] can be described thus: Anesthetized rat experiments (hemodynamics, blood levels). In kind it is in vivo. The conditions noted are these: individual animals; for Outcome: IV infusion 0.3 mg/kg englerin B (doses up to 0.3 mg/kg); for Compound concentration in blood: IV infusion 0.3 mg/kg englerin B. Here is the method: Rats were anesthetized via an intra-peritoneal (ip) injection of ketamine/xylazine (80/10 mg/kg). A half dose (40 mg/kg ketamine) was given as supplemental anesthesia as needed. Animals were placed on a heating pad set to maintain body temperature at approximately 37°C. Body temperature was monitored throughout the experiment via a rectal temperature probe.
Once consciousness had been lost, the trachea was isolated and an endotracheal tube was inserted for mechanical ventilation. The endotracheal tube was connected to a mechanical ventilator that provided positive-pressure ventilation with room air, set to maintain 60 breaths/min with a tidal volume of 15 ml/kg. An incision was made on both sides of the neck. Both carotid arteries and a jugular vein were isolated and ligated anteriorly. A Millar pressure catheter was introduced into the left carotid artery to measure systolic arterial pressure (SAP), diastolic pressure (DAP), mean arterial pressure (MAP) and heart rate (HR). Another Millar pressure catheter was introduced into the left ventricular chamber through the right carotid artery to measure left ventricular systolic pressure (LVSP) and left ventricular end diastolic pressure (LVEDP).
A cannula for test compound administration was placed into a jugular vein. A lead II electrocardiogram was recorded via needle electrodes placed in the right arm, left leg and chest and PR and QRS intervals were reported.
After rats were surgically instrumented, hemodynamic and electrocardiographic monitoring was initiated. […] The duration of the experimental testing was approximately 60 minutes.
At the end of each infusion period, approximately 0.5 ml of blood was withdrawn from the vena cava into a pre-chilled collection tube containing 2.5 ml of 90% ACN (acetonitrile):10% water.

The conditions of data set [2]: male, Sprague Dawley, rat, in vivo, po, 5 mg/kg.
Procedure: A 25 μl aliquot of sample was subjected to protein precipitation using 150 μl of acetonitrile containing 100 ng/ml of internal standard (glyburide). After vortex and centrifugation for 5 minutes at 4000 revolutions per minute, 125 μl of supernatant was transferred to a 1 ml 96-well plate, followed by the addition of 50 μl of water. The analysis was conducted by using HPLC separation coupled with mass spectrometric detection.
Agilent 1100 (Santa Clara, CA) was used for LC separations coupled with CTC PAL (Zwingen, Switzerland). […] A Sciex API 4000 Q Trap mass spectrometer equipped with a Turbo Ionspray interface from Applied Biosystems (Framingham, MA) was used for detection. The instrument was operated in the positive ion MRM mode employing nitrogen as a collision gas. […] Data were acquired and processed by Sciex Analyst 1.5.2 software.
Standard regression and back-calculation of unknown concentrations were performed by Thermo Watson 7.4 software purchased from Thermo Fisher Scientific, Inc. (Philadelphia, PA). Quantification of the parent compound in rat blood was based on at least 5-point calibration curve. […] The bias of all calibration standards and quality control samples was within the acceptance criteria of ± 30%.

Structures are written as SMILES. Several values for one entry are separate records, joined by “and”; a condition that tells them apart may be missing. Equal values may be shown once.

With `CC(C)[C@@]12C[C@@H](O)[C@@](C)(O1)[C@@H]1CC[C@@H](C)[C@H]1[C@@H]2OC(=O)/C=C/c1ccccc1` [Englerin B], the Outcome entry was “No effect” in data set [1] and “no effect on mean arterial pressure or animal viability” in data set [1] (listed as englerin B). The “Compound concentration in blood” value is 539 nM and 362 nM and 462 nM and 442 nM in data set [1]; 362 to 539 nM in data set [1] (listed as englerin B). In data set [2], the “blood levels of englerin B after dosing englerin A” value is given as more than 50 nM.

The values above are taken from article PMC4476799, “Englerin A Agonizes the TRPC4/C5 Cation Channels to Inhibit Tumor Cell Line Proliferation” (PLoS ONE, 2015).
